The source made the active and inactive calls. The calls are words filed in the database; no cut-off is given here.

Experiment [1] deals with Frankliniella fusca. As to the kind of experiment: Insecticidal activity against Frankliniella fusca assessed as effect on probing/feeding bout on pepper plants at 7.1 g a.i./1000 plants measured as number of potential drops by electronic penetration graph analysis (reference value: 0.03 +/- 0.01 /hr). The class given is functional.
Experiment [2] deals with Frankliniella fusca. Briefly: Insecticidal activity against Frankliniella fusca assessed as effect on probing/feeding bout on mustard plants at 14.4 g a.i./1000 plants measured as number of potential drops by electronic penetration graph analysis (reference value: 0.2 +/- 0.09 /hr). The class given is functional.
In experiment [3] the test system is Frankliniella fusca. Briefly: Insecticidal activity against Frankliniella fusca assessed as effect on probing/feeding bout on pepper plants at 14.4 g a.i./1000 plants measured as number of potential drops by electronic penetration graph analysis (reference value: 0.28 +/- 0.03 /hr). The format is functional.
In experiment [4] the test system is Frankliniella fusca. Briefly: Insecticidal activity against Frankliniella fusca assessed as effect on probing/feeding bout on mustard plants at 7.1 g a.i./1000 plants measured as duration of potential drops by electronic penetration graph analysis (reference value: 1.28 +/- 0.15 min). The class given is functional.
Experiment [5] relates to Frankliniella fusca. As to the kind of experiment: Insecticidal activity against Frankliniella fusca assessed as reduction in tomato spotted wilt tospovirus transmission in compound pre-treated tomato plant at 9.9 g a.i./1000 plants 60 days prior to 48 hr insect-infestation followed by foliar application at 7.1 g a.i./1000 plants measured after 21 days in green house conditions. The class given is functional. More on the design: scale not given: the % may be the effect or the level left.

The test system of experiment [6] is Frankliniella fusca. As to the kind of experiment: Insecticidal activity against Frankliniella fusca assessed as reduction in tomato spotted wilt tospovirus transmission in compound pretreated tomato plant at 11.3 g a.i./1000 plants 8 days prior to 48 hr insect-infestation followed by foliar application at 7.1 g a.i./1000 plants measured after 21 days in field conditions. Details: scale not given: the % may be the effect or the level left. The class given is functional.

For experiment [7], the system named is Frankliniella fusca. As to the kind of experiment: Insecticidal activity against Frankliniella fusca assessed as reduction in tomato spotted wilt tospovirus transmission in compound pretreated pepper plant at 9.9 g a.i./1000 plants 60 days prior to 48 hr insect-infestation followed by foliar application at 7.1 g a.i./1000 plants measured after 21 days in green house conditions. The format is functional. Details: scale not given: the % may be the effect or the level left.

Experiment [8] relates to Frankliniella fusca. Briefly: Insecticidal activity against Frankliniella fusca assessed as effect on probing/feeding bout on mustard plants at 14.4 g a.i./1000 plants measured as duration of potential drops by electronic penetration graph analysis (reference value: 0.06 +/- 0.03 min). The format is functional.
For experiment [9], the system named is Frankliniella fusca. As to the kind of experiment: Insecticidal activity against Frankliniella fusca assessed as effect on probing/feeding bout on pepper plants at 7.1 g a.i./1000 plants measured as duration of potential drops by electronic penetration graph analysis (reference value: 0.01 +/- 0.01 min). The class given is functional.
Experiment [10] relates to Frankliniella fusca. As to the kind of experiment: Insecticidal activity against Frankliniella fusca assessed as reduction in number of thrips isolated per compound pre-treated tobacco plant infected with tomato spotted wilt tospovirus at 9.9 g a.i./1000 plants in green house conditions relative to control. The class given is functional, organism-based.
The subject of experiment [11] is Frankliniella fusca. Briefly: Insecticidal activity against Frankliniella fusca immature thrips isolated from infected tobacco plants assessed reduction in tomato spotted wilt tospovirus transmission on petunia leaf by DAS-ELISA. Details: scale not given: the % may be the effect or the level left. The class given is functional.
In experiment [12] the test system is Frankliniella fusca. As to the kind of experiment: Insecticidal activity against Frankliniella fusca assessed as effect on probing/feeding bout on mustard plants at 7.1 g a.i./1000 plants measured as number of potential drops by electronic penetration graph analysis (reference value: 0.7 +/- 0.11 /hr). The class given is functional.
Experiment [13] deals with Frankliniella fusca. Briefly: Insecticidal activity against Frankliniella fusca assessed as tomato spotted wilt tospovirus transmission in compound pre-treated tobacco plant at 9.9 g a.i./1000 plants 60 days prior to 48 hr insect-infestation followed by foliar application at 7.1 g a.i./1000 plants measured after 21 days in green house conditions (reference value: 82.5 +/- 0.05%). The class given is functional.

In experiment [14] the test system is Frankliniella fusca. As to the kind of experiment: Insecticidal activity against Frankliniella fusca assessed as effect on probing/feeding bout on pepper plants at 14.4 g a.i./1000 plants measured as duration of potential drops by electronic penetration graph analysis (reference value: 0.04 +/- 0.02 min). The format is functional.
Experiment [15] deals with Frankliniella fusca. As to the kind of experiment: Insecticidal activity against Frankliniella fusca assessed as reduction in tomato spotted wilt tospovirus transmission in compound pre-treated pepper plant at 11.3 g a.i./1000 plants 8 days prior to 48 hr insect-infestation followed by foliar application at 7.1 g a.i./1000 plants measured after 21 days in field conditions. Details: scale not given: the % may be the effect or the level left. The format is functional.

With `O=[N+]([O-])/N=C1\NCCN1Cc1ccc(Cl)nc1` [IMIDACLOPRID], the Activity in experiment [1] is 1.53 h⁻¹; in experiment [2], 1.53 h⁻¹; in experiment [3] it was 1.84 h⁻¹; in experiment [5] it was 82%; in [6], 87%; in experiment [7], 74%. Also, the Activity in experiment [11] worked out at 6.4%; in [12], 2.12 h⁻¹; in experiment [13], 11.1%; in experiment [15] it was 73%. Also, the Time in [4] was 1.41 min; in experiment [8], 0.79 min; in experiment [9], 0.39 min; in experiment [14], 0.52 min. In addition, the outcome in [10] was Active.

These data come from ChEMBL document CHEMBL3046739, “Effects of imidacloprid on transmission of tomato spotted wilt tospovirus to pepper, tomato and tobacco by Frankliniella fusca Hinds (Thysanoptera: Thripidae)” (2001).
